Tests used:
tubulin [1] = test system: T1, tubulin; assay: competition with BODIPY FL-vinblastine (fluorescence); assay type: binding, Canis lupus familiaris
T1 construct: tubulin prepared from fresh dog brain tissue; with alpha/beta-tubulin heterodimer

tubulin [2] = test system: T1, tubulin; assay: competitive colchicine-tubulin fluorescence assay; limited trypsin proteolysis; assay type: binding, Canis lupus familiaris

CC[C@]1(O)C[C@H]2CN(CCc3c([nH]c4ccccc34)[C@@](C(=O)OC)(c3cc4c(cc3OC)N(C=O)[C@H]3[C@@](O)(C(=O)OC)[C@H](OC(C)=O)[C@]5(CC)C=CCN6CC[C@]43[C@@H]65)C2)C1 [vincristine]
IC50 (tubulin [1]): 6.97 ± 1.61 µM

COc1ccc2c(c1)NC(=O)CN2c1nc(C)nc2ccccc12 [WX-132-18B]
IC50 (tubulin [2]): 470 ± 100 nM

— paper PMC5641089, “WX-132-18B, a novel microtubule inhibitor, exhibits promising anti-tumor effects” (Oncotarget, 2017)
